Literature values in patent US8309122B2 (Endo Pharmaceuticals Inc., priority 2001, dated 2012).

Details: metabolized principally in the liver

## CN1CC[C@]23c4c5ccc(O)c4O[C@H]2C(=O)CC[C@@]3(O)[C@H]1C5.Cl [Oxymorphone, 14-hydroxydihydromorphinone hydrochloride]
  oral bioavailability: about 10%
